# Laboratory results as given in patent US20070078120A1, “Novel piperidine derivative” (priority 2003, published 2007).
# Structures can show the parent of a compound that is named as a salt.
# Key:
# LDL receptor [1] = experiment: LDL receptor activity: amount of DiI-LDL uptaken into HepG2 cells; format: cell-based, human; conditions: DiI-LDL uptake into HepG2 cells, control group = 100%
# Procedure: A preparation of 1,1′-dioctadecyl-3,3,3′,3′-tetramethylindocarbocyanine perchlorate (DiI)-labeled LDL (DiI-LDL) was carried out as follows. That is, DiI (invitrogen, the U.S.) was mixed with human LDL (CHEMICON, the U.S.), and the mixture was kept for 8 hours at 37° C. Thereto a specific density solution (d=1.182) was added and mixed, and then treated with super centrifugation operation (32 k rpm, 14 hours; using Beckman Ti55.2 rotator). After the centrifugation, the DiI labeled LDL fraction was taken up and prepared via a dialysis against saline.
# The action on LDL receptor was determined with the amount of the DiI-LDL uptaken into HepG2 cells which was as an indicator. Namely, human hepatoma cell line HepG2 was bought from DAINIPPON PHARMACEUTICAL CO., LTD (Osaka, Japan) and it was used for the experiment. The HepG2 cells were plated on a 96 well plate and incubated with Dulbecco's modified Eagle/F-12 medium (DMEM/F-12) containing 10% fetal bovine serum and antibiotics for 2-3 days at 37° C. in a CO2 incubator. After washing the cells, DMEM/F-12 media containing the test compound, 10% delipoprotein serum and antibiotics was added thereto and cells were incubated for 19 hours at 37° C. The DiI-LDL was added thereto, and cells were incubated for additional 5 hours at 37° C. in a CO2 incubator. For the measurement of the amount of nonspecific DiI-LDL uptake, another 30-50 times the nonlabeled LDL was added additively to each well. After washing cells with Dulbecco's phosphate buffer (SIGMA, the U.S.), Dulbecco's phosphate buffer was added to each well, and then the fluorescence value was measured with a fluorescence plate reader to determine the amount of the DiI-LDL uptaken into cells. After measuring the fluorescence, the Dulbecco's phosphate buffer was removed. Cells were dissolved in 1N sodium hydroxide solution. Using a part of the solution, the protein amount was measured. The action of each compound on LDL receptor was estimated on the basis of 100% of the control group, using the value given by subtracting the nonspecifically uptaken amount from the calculated fluorescence value/protein amount.
# LDL receptor [2] = experiment: Measurement of LDL receptor expression: LDL-R protein amount by immunoblotting in HepG2 cells; format: cell-based, human; conditions: compared with the control group
# Procedure: We investigated the effect of each test compound on the amount of LDL receptor in HepG2 cells, a human hepatoma cell line. Cells were seeded in each well of 6-well plates at the density of 7.5×10^5 cells/well (day 1). On day 3, the culture media was changed to a media containing lipoprotein deficient serum and the test compound. On day 4, the cells were scraped and then collected by centrifugation operation. The collected cells were lysed in a buffer containing 0.1% TritonX-100, treated with centrifugation, and then the supernatant was given as a cell protein solution. Using the prepared cell protein solution, the LDL-R protein amount was determined with an immunoblotting procedure.
# HepG2 cells were treated with the compound of Examples 1-4, and then LDL receptor protein amount was determined by immunoblotting procedure.
Molecule,Activity of LDL receptor(%) (LDL receptor [1]; 10 μM),other results
"COc1cccc(C2(CN3CCCCC3)CCN(c3ccccc3OC)CC2)c1 [Example 55-1, 1-(2-methoxyphenyl)-4-(3-methoxyphenyl)-4-(piperidin-1-ylmethyl)piperidine]",,Activity of LDL receptor(%) (LDL receptor [1]; 1 μM): 141%
"COc1cccc([C@]2(C#N)CC[C@H](N3CCNCC3)CC2)c1 [Example 58-1, trans-1-(3-methoxyphenyl)-4-piperazin-1-yl-cyclohexanecarbonitrile dihydrochloride]",152%,
"COc1cccc(C2(CO)CCN(c3ccccc3OC)CC2)c1 [Example 12, [1-(2-Methoxyphenyl)-4-(3-methoxyphenyl)piperidin-4-yl]-methanol]",134%,
"COc1cccc(C2(C#N)CCN(c3nc4ccccc4s3)CC2)c1 [Example 7-3, 1-(1,3-Benzothiazol-2-yl)-4-(3-methoxyphenyl)piperidine-4-carbonitrile]",,Activity of LDL receptor(%) (LDL receptor [1]; 3 μM): 125%
"COc1cccc([C@]2(C#N)CC[C@@H](NCc3ccccc3)CC2)c1 [Example 105, cis-4-(benzylamino)-1-(3-methoxyphenyl)-cyclohexanecarbonitrile]",139%,
"COc1cccc(C2(C#N)CCN(C3CCN(Cc4ccccc4)CC3)CC2)c1 [Example 89, 1′-benzyl-4-(3-methoxyphenyl)-1,4′-bipiperidine-4-carbonitrile]",195%,
"COc1cccc(C2(C#N)CCN(C3CCNCC3)CC2)c1 [Example 85, 4-(3-methoxyphenyl)-1,4′-bipiperidine-4-carbonitrile dihydrochloride]",149%,
1-(2-methoxyphenyl)-4-[3-(methylamino)-phenyl]piperidine-4-carbonitrile and 4-[3-(dimethylamino)-phenyl]-1-(2-methoxyphenyl)piperidine-4-carbonitrile [Example 20],123%,
"COc1cccc(C2(C#N)CCC(N3CCN(c4ncccn4)CC3)CC2)c1 (centres unmarked) [Example 82, 1-(3-methoxyphenyl)-4-(4-pyrimidin-2-yl-piperazin-1-yl)cyclohexanecarbonitrile]",125%,
"COc1cccc(C2(C(=O)NCc3ccccc3)CCN(c3ncccn3)CC2)c1 [Example 43-2, N-benzyl-4-(3-methoxyphenyl)-1-pyrimidin-2-ylpiperidine-4-carboxyamide]",116%,
"COc1cccc(C2(C#N)CCN(c3ccccc3OC)CC2)c1 [Example 1-4, 1-(2-methoxyphenyl)-4-(3-methoxyphenyl)-piperidine-4-carbonitrile]",134%,LDL receptor protein amount (immunoblotting) (LDL receptor [2]; 1 μM): superior activity enhancing the protein amount of LDL receptor; LDL receptor protein amount (immunoblotting) (LDL receptor [2]; 10 μM): superior activity enhancing the protein amount of LDL receptor
"COc1cccc([C@]2(C#N)CC[C@H](N3CCNCC3)CC2)c1 (as salt: hydrochloride) [Example 58-1, trans-1-(3-methoxyphenyl)-4-piperazin-1-yl-cyclohexanecarbonitrile dihydrochloride]",,melting point: 159 to 160 °C
"COc1cccc(C2(C(=S)NCc3ccccc3)CCN(c3ncccn3)CC2)c1 [Example 44, N-benzyl-4-(3-methoxyphenyl)-1-pyrimidin-2-ylpiperidine-4-carbothioamide]",,Activity of LDL receptor(%) (LDL receptor [1]; 3 μM): 135%
"COc1cccc(C2(C#N)CCN(c3ncccc3OCc3ccccc3)CC2)c1 [Example 6-3, 1-[3-(Benzyloxy)pyridin-2-yl]-4-(3-methoxyphenyl)-piperidine-4-carbonitrile]",127%,
"COc1cccc(C2(C(N)=O)CC3CCC(C2)N3c2ccccc2OC)c1 (centres unmarked) [Example 49-f, 8-(2-Methoxyphenyl)-3-(3-methoxyphenyl)-8-azabicyclo-[3.2.1]octane-3-carboxyamide]",135%,
